Reference: patent US20040127492A1 (Pharmacia Corporation, priority 2002, published 2004)
Where two headings read alike, the source gives them in different places.

Biological target: MAPKAPK2 (MK-2) (Homo sapiens, UniProt P49137)
Assay: Determination of MK-2 IC50 (HSP-peptide phosphorylation, anion exchange resin capture assay)
Format: biochemical
Experimental: Determination of MK-2 IC50:
Recombinant MAPKAPK2 was phosphorylated at a concentration of 42-78 μM by incubation with 0.23 μM of active p38α in 50 mM HEPES, 0.1 mM EDTA, 10 mM magnesium acetate, and 0.25 mM ATP, pH 7.5 for one hour at 30° C.
The phosphorylation of HSP-peptide ([…]) by MAPKAPK2 was measured using an anion exchange resin capture assay method. The reaction was carried out in 50 mM β-glycerolphosphate, 0.04% BSA, 10 mM magnesium acetate, 2% DMSO and 0.8 mM dithiotheritol, pH 7.5 in the presence of the HSP-peptide with 0.2 μCi [γ^33P]ATP and 0.03 mM ATP. The reaction was initiated by the addition of 15 nM MAPKAPK2 and was allowed to incubate at 30° C. for 30 min. The reaction was terminated and [γ^33P]ATP was removed from solution by the addition of 150 μl of AG 1×8 ion exchange resin in 900 mM sodium formate pH 3.0. A 50 μl aliquot of head volume was removed from the quenched reaction mixture and added to a 96-well plate, 150 μl of Microscint-40 (Packard) was added and the amount of phosphorylated-peptide was determined. Allow the Microscint to sit in the plates for 60 minutes prior to counting.
Compounds are evaluated as potential inhibitors of the MK-2 kinase by measuring their effects on MK-2 phosphorylation of the peptide substrate. Compounds may be screened initially at two concentrations prior to determination of IC50 values. Screening results are expressed as percent inhibition at the concentrations of compound tested. For IC50 value determinations, Compounds are tested at six concentrations in ten-fold serial dilutions with each concentration tested in triplicate. Results are expressed as IC50 values in micromolar. The assay is performed at a final concentration of 2% DMSO.

[1] = Table 5, other cyclic pyrazole MK-2 inhibiting compounds, read-out: MK-2 Avg. IC50
[2] = Table 4, pyrimidylpyrazole MK-2 inhibitors, read-out: MK-2 Avg. IC50
[3] = Table 2, pyrazolylpyrazole MK-2 inhibitors, read-out: MK-2 Avg. IC50
[4] = Table 1, phenoxypyrazole MK-2 inhibitors, read-out: MK-2 Avg, IC50

MAPKAPK2 (MK-2), sequence (P49137 whole entry, species assumed): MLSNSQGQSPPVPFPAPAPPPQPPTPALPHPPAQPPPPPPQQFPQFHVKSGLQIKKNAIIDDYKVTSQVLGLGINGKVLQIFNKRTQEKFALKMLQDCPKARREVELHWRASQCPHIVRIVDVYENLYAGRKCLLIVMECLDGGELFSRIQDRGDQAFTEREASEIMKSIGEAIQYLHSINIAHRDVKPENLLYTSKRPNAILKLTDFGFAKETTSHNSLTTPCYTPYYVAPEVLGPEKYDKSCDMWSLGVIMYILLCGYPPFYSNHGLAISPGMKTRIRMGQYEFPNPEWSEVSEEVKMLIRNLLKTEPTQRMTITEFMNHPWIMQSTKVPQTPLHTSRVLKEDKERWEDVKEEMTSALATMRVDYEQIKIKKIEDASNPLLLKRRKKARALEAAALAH

IC50 (read-out: MK-2 Avg. IC50)	SMILES	further results
	O=C1NCCn2nc3c(c21)CCc1cnc(/C=C/c2ccccc2)cc1-3 [Example 2]	IC50 [1]: 0.147 µM
	O=C1NCCn2nc3c(c21)CCc1cnc(/C=C/c2ccc(O)cc2)cc1-3 [Example 3]	IC50 [1]: 0.164 µM
	O=C1NCCCn2nc3c(c21)CCc1cnc(-c2cnc4ccccc4c2)nc1-3 [Example 4]	IC50 [2]: 1.47 µM
	O=C1NCCCn2nc3c(c21)CCc1cnc(-c2ccc4c(c2)OCO4)nc1-3 [Example 7]	IC50 [2]: 3.14 µM
	COc1ccc(-c2ncc3c(n2)-c2nn4c(c2CC3)C(=O)NCCC4)cc1 [Example 8]	IC50 [2]: 4.52 µM
	O=C1NCCCn2nc3c(c21)CCc1cnc(-c2ccncc2)nc1-3 [Example 9]	IC50 [2]: 8.62 µM
	O=C(O)c1c2c(nn1CCCNC(c1ccccc1)(c1ccccc1)c1ccccc1)-c1nc(-c3ccccc3)ncc1CC2 [Example 10]	IC50 [2]: 52.2 µM
	O=C1NCCCn2nc3c(c21)CCc1cnc(-c2ccccc2)nc1-3 [Example 11]	IC50 [2]: 81.4 µM
	COC(=O)c1c2c(nn1CCCN)-c1nc(-c3ccncc3)ncc1CC2 [Example 12]	IC50 [2]: 142 µM
	CSc1n[nH]c2c1-c1n[nH]c(C(N)=O)c1CC2 [Example 18]	IC50 [3]: 30.3 µM
	O=C1NCCCn2nc3c(c21)CCc1cc(O)ccc1-3 [Example 18]	IC50 [4]: 17 µM
0.0914 µM	CCCn1nc2c(c1C(=O)O)CCc1cnc(-c3cnc4ccccc4c3)cc1-2 [Example 20]	
	CC(C)Cc1cc2c(cc1O)CCc1c-2nn(CCCN)c1C(=O)O [Example 25]	IC50 [4]: 20.8 µM
	NC(=O)c1[nH]nc2c1CCc1[nH]nc(SCc3ccccc3)c1-2 [Example 25]	IC50 [3]: 80.7 µM
	NCCCn1nc(C(N)=O)c2c1-c1cn[nH]c1CC2 [Example 28]	IC50 [3]: 104 µM
	NCCCn1nc2c(c1C(=O)O)CCc1cc(O)c(Cc3ccccc3)cc1-2 [Example 29]	IC50 [4]: 29.6 µM
	CCC(C)Nc1cc2c(cc1O)CCc1c-2nn(CCCN)c1C(=O)O (centres unmarked) [Example 35]	IC50 [4]: 45.9 µM
	NCCCn1nc2c(c1C(=O)O)CCc1c-2cc(-c2cccc([N+](=O)[O-])c2)c(O)c1Cl [Example 43]	IC50 [4]: 74.3 µM
0.322 µM	COc1cccc(-c2cc3c(cn2)CCc2c-3nn3c2C(=O)NCC3)c1 [Example 45]	
	COC(=O)c1[nH]nc2c1CCc1cc(O)c(S(=O)(=O)N(C)C)cc1-2 [Example 47]	IC50 [4]: 92.8 µM
	COc1cc2c(cc1-c1cccc(Cl)c1)-c1nn(CCCNC(=O)OC(C)(C)C)c(C(=O)O)c1CC2 [Example 50]	IC50 [4]: 104 µM
0.453 µM	O=C1NCCCn2nc3c(c21)CCc1cnc(-c2cccc([N+](=O)[O-])c2)cc1-3 [Example 50]	
	Nc1cccc(-c2cc3c(cc2O)CCc2c-3nn3c2C(=O)NCCC3)c1 [Example 51]	IC50 [4]: 105 µM

IC50 (read-out: MK-2 Avg. IC50)	SMILES	further results
	NC(=O)CCn1nc(C(N)=O)c2c1-c1cn[nH]c1CC2 [Example 56]	IC50 [3]: ≥ 200 µM
	NC(=O)Cn1nc(C(N)=O)c2c1-c1cn[nH]c1CC2 [Example 57]	IC50 [3]: ≥ 200 µM
	CS(=O)(=O)c1n[nH]c2c1-c1n[nH]c(C(N)=O)c1CC2 [Example 58]	IC50 [3]: ≥ 200 µM
	O=C(O)c1[nH]nc2c1CCc1[nH]nc(SCc3ccccc3)c1-2 [Example 60]	IC50 [3]: ≥ 200 µM
	CCOC(=O)c1[nH]nc2c1CCc1[nH]nc(SCc3ccccc3)c1-2 [Example 61]	IC50 [3]: ≥ 200 µM
0.587 µM	COc1ccc(-c2cc3c(cn2)CCc2c-3nn3c2C(=O)NCC3)cc1 [Example 62]	
	C[S+]([O-])c1n[nH]c2c1-c1n[nH]c(C(=O)O)c1CC2 (centres unmarked) [Example 62]	IC50 [3]: ≥ 200 µM
	CCOC(=O)c1[nH]nc2c1CCc1[nH]nc([S+](C)[O-])c1-2 (centres unmarked) [Example 63]	IC50 [3]: ≥ 200 µM
	COc1cc2c(cc1Cc1ccccc1)-c1nn(CCCNC(=O)OC(C)(C)C)c(C(=O)O)c1CC2 [Example 63]	IC50 [4]: 154 µM
	CSc1n[nH]c2c1-c1n[nH]c(C(=O)O)c1CC2 [Example 64]	IC50 [3]: ≥ 200 µM
	CCOC(=O)c1[nH]nc2c1CCc1[nH]nc(SC)c1-2 [Example 65]	IC50 [3]: ≥ 200 µM
	O=C(O)c1[nH]nc2c1CCc1cc(O)c(Br)cc1-2 [Example 66]	IC50 [4]: 163 µM
	CCC(C)Nc1cc2c(cc1OC)CCc1c-2nn(CCCN)c1C(=O)O (centres unmarked) [Example 74]	IC50 [4]: 196 µM
	COC(=O)c1[nH]nc2c1C(C)Cc1cc(OC)ccc1-2 (centres unmarked) [Example 100]	IC50 [4]: > 200 µM
	COC(=O)c1c2c(nn1CCCNC(=O)OC(C)(C)C)-c1cc(-c3cccc(Cl)c3)c(OC)cc1CC2 [Example 131]	IC50 [4]: > 200 µM
10.1 µM	O=C(O)c1c2c(nn1CCCNCc1cnc[nH]1)-c1ccncc1CC2 [Example 160]	
10.3 µM	O=C(O)c1c2c(nn1CCCNCc1cccc(Cl)c1)-c1ccncc1CC2 [Example 161]	
10.4 µM	O=C(NCCCn1nc2c(c1C(=O)O)CCc1cnccc1-2)c1cccnc1 [Example 162]	
10.4 µM	NC(=O)c1[nH]nc2c1CCc1cnccc1-2 [Example 163]	
10.4 µM	O=C(O)c1c2c(nn1CCCNC1CCCC1)-c1ccncc1CC2 [Example 164]	
10.7 µM	O=C(O)c1c2c(nn1CCCNCCc1c[nH]c3ccccc13)-c1ccncc1CC2 [Example 165]	
11 µM	NCCCC1CNC(=O)c2c3c(nn21)-c1ccncc1CC3 (centres unmarked) [Example 166]	
11.8 µM	O=C1NC(C(O)CO)Cn2nc3c(c21)CCc1cnccc1-3 (centres unmarked) [Example 167]	

IC50 (read-out: MK-2 Avg. IC50)	SMILES	further results
11.9 µM	O=C1NCCn2nc3c(c21)CCc1cnc(N2CCOCC2)cc1-3 [Example 168]	
12.3 µM	CCOC(=O)c1c2c(nn1CCN)-c1ccncc1CC2 [Example 169]	
12.6 µM	C=CCn1nc2c(c1C(=O)O)CCc1cnccc1-2 [Example 170]	
14 µM	O=C(O)c1c2c(nn1CC(O)CNC1Cc3ccccc3C1)-c1ccncc1CC2 (centres unmarked) [Example 172]	
14.3 µM	O=C(O)c1c2c(nn1CCO)-c1ccncc1CC2 [Example 173]	
14.6 µM	O=C(O)c1c2c(nn1CCCNCCN1CCCC1)-c1ccncc1CC2 [Example 174]	
15 µM	O=C1NCCn2nc3c(c21)CCc1cnc(N2CCc4ccccc4C2)cc1-3 [Example 175]	
15.4 µM	O=C(NCCCn1nc2c(c1C(=O)O)CCc1cnccc1-2)NCc1ccccc1 [Example 176]	
15.5 µM	CN(C)CCCn1nc2c(c1C(=O)O)CCc1cnccc1-2 [Example 177]	
16.5 µM	NCCCn1nc2c(c1C(=O)O)CCc1c-2ccnc1Cl [Example 179]	
16.5 µM	COC(=O)C1Cn2nc3c(c2C(=O)N1)CCc1cnccc1-3 (centres unmarked) [Example 180]	
17.4 µM	O=C(CO)NCCn1nc2c(c1C(=O)O)CCc1cnccc1-2 [Example 181]	
17.7 µM	CC(C)NCCn1nc2c(c1C(=O)O)CCc1cnccc1-2 [Example 182]	
17.9 µM	N#CCCCn1nc2c(c1C(=O)O)CCc1cnccc1-2 [Example 183]	
17.9 µM	N#Cc1cccc(NC(=O)NCCCn2nc3c(c2C(=O)O)CCc2cnccc2-3)c1 [Example 184]	
19.4 µM	NCC1Cn2nc3c(c2C(=O)O1)CCc1cnccc1-3 (centres unmarked) [Example 185]	
20 µM	Cc1nccc2c1CCc1c-2nn2c1C(=O)NCCC2 [Example 186]	
20.1 µM	CCCn1nc2c(c1C(=O)O)CCc1cnccc1-2 [Example 187]	
21.5 µM	O=C(O)c1c2c(nn1CCCBr)-c1ccncc1CC2 [Example 188]	
21.6 µM	O=C1NCCn2nc3c(c21)CCc1cnc(N2CCCC2)cc1-3 [Example 189]	
21.9 µM	CC(C)NCCCn1nc2c(c1C(=O)O)CCc1cnccc1-2 [Example 190]	
25 µM	NC(CCn1nc2c(c1C(=O)O)CCc1cnccc1-2)C(=O)O (centres unmarked) [Example 191]	
